{
  "source": "paper doi:10.1101/2024.08.13.607785v1",
  "about": "(biorxiv, 2024)",
  "assay_in_all_cases": "biochemical",
  "parameters_in_all_cases": "species or system human cell line lysate",
  "key": {"[1]": {"molecular_target": "T1, Dual specificity mitogen-activated protein kinase kinase 3 ; MAP2K3 ; P46734 (Homo sapiens, UniProt P46734)", "T1 sequence (P46734 1-347)": "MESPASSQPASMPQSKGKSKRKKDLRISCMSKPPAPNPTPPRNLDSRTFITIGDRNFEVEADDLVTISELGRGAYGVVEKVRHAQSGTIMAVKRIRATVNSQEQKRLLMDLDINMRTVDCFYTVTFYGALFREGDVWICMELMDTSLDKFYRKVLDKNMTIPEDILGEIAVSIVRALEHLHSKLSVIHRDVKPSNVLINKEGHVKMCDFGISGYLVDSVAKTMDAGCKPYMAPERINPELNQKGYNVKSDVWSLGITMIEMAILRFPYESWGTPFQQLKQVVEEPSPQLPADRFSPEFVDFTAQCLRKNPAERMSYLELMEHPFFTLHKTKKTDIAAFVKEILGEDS"}, "[2]": {"molecular_target": "Dual specificity protein kinase TTK ; TTK ; P33981 (Homo sapiens, UniProt P33981)"}, "[3]": {"molecular_target": "Fructosamine-3-kinase ; FN3K ; Q9H479 (Homo sapiens, UniProt Q9H479)", "sequence (Q9H479 whole entry)": "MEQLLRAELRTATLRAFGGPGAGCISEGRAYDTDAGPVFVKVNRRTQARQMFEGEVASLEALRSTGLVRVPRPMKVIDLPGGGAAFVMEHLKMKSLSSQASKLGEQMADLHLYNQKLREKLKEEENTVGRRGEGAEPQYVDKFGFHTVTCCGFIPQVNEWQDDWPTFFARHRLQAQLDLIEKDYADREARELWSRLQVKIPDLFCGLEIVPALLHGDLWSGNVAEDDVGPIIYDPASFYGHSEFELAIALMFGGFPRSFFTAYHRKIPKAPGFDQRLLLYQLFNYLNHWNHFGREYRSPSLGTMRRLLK"}, "[4]": {"molecular_target": "Isoform 3 of Membrane-associated tyrosine- and threonine-specific cdc2 ; PKMYT1 ; Q99640-3 (Homo sapiens, UniProt Q99640)"}, "[5]": {"molecular_target": "Isoform 4 of LIM domain kinase 1 ; LIMK1 ; P53667-4 (Homo sapiens, UniProt P53667)"}, "[6]": {"molecular_target": "Isoform 4 of Serine/threonine-protein kinase PAK 4 ; PAK4 ; O96013-4 (Homo sapiens, UniProt O96013)"}, "[7]": {"molecular_target": "Isoform Delta 12 of Calcium/calmodulin-dependent protein kinase type I ; CAMK2D ; Q13557-12 (Homo sapiens, UniProt Q13557)"}, "[8]": {"molecular_target": "MAP/microtubule affinity-regulating kinase 4 ; MARK4 ; Q96L34 (Homo sapiens, UniProt Q96L34)"}, "[9]": {"molecular_target": "Microtubule-associated serine/threonine-protein kinase 2 ; MAST2 ; Q6P0Q8 (Homo sapiens, UniProt Q6P0Q8)", "sequence (Q6P0Q8 whole entry, one chain of several)": "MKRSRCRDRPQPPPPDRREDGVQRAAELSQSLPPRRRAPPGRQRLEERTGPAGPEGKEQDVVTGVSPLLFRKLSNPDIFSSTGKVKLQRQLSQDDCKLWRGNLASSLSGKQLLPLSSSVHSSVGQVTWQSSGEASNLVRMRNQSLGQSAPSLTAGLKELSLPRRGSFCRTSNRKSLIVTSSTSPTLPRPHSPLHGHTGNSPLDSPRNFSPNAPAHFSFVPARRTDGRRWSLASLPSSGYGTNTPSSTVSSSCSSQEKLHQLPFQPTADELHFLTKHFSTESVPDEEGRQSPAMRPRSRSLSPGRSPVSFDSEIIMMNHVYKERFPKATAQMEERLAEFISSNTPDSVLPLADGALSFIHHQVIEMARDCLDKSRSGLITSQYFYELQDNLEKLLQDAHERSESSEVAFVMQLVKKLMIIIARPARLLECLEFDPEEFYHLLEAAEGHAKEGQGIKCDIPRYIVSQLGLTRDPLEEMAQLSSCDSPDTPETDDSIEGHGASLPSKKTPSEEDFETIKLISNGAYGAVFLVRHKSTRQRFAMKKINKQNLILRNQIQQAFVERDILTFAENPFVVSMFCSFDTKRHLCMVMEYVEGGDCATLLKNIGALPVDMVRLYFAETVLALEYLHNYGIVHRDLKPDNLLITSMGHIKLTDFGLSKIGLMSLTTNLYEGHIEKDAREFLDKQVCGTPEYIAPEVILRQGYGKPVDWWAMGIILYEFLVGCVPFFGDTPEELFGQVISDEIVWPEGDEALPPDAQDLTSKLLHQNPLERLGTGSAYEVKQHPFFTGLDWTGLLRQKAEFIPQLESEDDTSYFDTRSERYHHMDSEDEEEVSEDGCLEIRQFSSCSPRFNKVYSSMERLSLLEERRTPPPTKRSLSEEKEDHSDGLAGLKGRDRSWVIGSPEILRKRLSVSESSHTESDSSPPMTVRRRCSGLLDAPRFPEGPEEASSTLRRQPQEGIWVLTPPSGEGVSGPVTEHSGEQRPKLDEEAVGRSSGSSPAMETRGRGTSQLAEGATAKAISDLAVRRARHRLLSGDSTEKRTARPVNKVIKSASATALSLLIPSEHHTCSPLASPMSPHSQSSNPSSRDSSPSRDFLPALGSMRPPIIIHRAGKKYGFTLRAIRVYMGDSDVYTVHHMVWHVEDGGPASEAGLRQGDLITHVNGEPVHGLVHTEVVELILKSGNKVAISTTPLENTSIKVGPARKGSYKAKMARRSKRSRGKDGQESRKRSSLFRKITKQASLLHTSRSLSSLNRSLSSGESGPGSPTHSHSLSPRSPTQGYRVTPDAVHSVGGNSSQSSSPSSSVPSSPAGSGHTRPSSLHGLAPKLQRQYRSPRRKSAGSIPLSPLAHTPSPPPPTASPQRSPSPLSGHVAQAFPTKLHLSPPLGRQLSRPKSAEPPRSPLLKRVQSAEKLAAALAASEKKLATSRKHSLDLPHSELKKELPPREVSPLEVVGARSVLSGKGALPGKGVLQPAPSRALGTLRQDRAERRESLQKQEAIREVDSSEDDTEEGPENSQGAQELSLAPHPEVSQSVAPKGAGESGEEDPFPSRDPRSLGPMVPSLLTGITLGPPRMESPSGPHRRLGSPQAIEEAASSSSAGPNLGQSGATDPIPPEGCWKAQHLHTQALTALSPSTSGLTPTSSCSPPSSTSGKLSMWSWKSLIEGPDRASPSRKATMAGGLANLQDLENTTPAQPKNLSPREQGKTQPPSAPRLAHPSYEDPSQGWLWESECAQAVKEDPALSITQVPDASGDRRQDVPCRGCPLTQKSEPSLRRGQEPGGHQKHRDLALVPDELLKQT"}, "[10]": {"molecular_target": "Mitogen-activated protein kinase 10 ; MAPK10 ; P53779 (Homo sapiens, UniProt P53779)", "sequence (P53779 whole entry)": "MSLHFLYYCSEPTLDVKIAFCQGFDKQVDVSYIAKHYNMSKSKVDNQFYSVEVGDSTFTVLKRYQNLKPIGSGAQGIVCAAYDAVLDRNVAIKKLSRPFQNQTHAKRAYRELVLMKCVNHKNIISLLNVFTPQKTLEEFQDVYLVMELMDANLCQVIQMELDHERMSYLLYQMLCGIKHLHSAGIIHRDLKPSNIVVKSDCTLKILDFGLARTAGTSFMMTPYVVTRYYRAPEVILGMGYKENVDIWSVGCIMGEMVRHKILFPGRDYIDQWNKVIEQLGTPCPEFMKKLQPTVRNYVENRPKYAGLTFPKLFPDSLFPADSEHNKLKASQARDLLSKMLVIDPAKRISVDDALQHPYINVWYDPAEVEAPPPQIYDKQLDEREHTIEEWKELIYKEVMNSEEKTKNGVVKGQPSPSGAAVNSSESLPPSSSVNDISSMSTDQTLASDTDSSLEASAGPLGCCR"}, "[11]": {"molecular_target": "Mitogen-activated protein kinase kinase kinase 2 ; MAP3K2 ; Q9Y2U5 (Homo sapiens, UniProt Q9Y2U5)"}, "[12]": {"molecular_target": "Mitogen-activated protein kinase kinase kinase kinase 5 ; MAP4K5 ; Q9Y4K4 (Homo sapiens, UniProt Q9Y4K4)"}, "[13]": {"molecular_target": "Serine/threonine-protein kinase BRSK1 ; BRSK1 ; Q8TDC3 (Homo sapiens, UniProt Q8TDC3)"}, "[14]": {"molecular_target": "Serine/threonine-protein kinase PLK1 ; PLK1 ; P53350 (Homo sapiens, UniProt P53350)"}, "[15]": {"molecular_target": "Serine/threonine-protein kinase SIK3 ; SIK3 ; Q9Y2K2 (Homo sapiens, UniProt Q9Y2K2)"}, "[16]": {"molecular_target": "Serine/threonine-protein kinase ULK2 ; ULK2 ; Q8IYT8 (Homo sapiens, UniProt Q8IYT8)", "sequence (Q8IYT8 whole entry, one chain of several)": "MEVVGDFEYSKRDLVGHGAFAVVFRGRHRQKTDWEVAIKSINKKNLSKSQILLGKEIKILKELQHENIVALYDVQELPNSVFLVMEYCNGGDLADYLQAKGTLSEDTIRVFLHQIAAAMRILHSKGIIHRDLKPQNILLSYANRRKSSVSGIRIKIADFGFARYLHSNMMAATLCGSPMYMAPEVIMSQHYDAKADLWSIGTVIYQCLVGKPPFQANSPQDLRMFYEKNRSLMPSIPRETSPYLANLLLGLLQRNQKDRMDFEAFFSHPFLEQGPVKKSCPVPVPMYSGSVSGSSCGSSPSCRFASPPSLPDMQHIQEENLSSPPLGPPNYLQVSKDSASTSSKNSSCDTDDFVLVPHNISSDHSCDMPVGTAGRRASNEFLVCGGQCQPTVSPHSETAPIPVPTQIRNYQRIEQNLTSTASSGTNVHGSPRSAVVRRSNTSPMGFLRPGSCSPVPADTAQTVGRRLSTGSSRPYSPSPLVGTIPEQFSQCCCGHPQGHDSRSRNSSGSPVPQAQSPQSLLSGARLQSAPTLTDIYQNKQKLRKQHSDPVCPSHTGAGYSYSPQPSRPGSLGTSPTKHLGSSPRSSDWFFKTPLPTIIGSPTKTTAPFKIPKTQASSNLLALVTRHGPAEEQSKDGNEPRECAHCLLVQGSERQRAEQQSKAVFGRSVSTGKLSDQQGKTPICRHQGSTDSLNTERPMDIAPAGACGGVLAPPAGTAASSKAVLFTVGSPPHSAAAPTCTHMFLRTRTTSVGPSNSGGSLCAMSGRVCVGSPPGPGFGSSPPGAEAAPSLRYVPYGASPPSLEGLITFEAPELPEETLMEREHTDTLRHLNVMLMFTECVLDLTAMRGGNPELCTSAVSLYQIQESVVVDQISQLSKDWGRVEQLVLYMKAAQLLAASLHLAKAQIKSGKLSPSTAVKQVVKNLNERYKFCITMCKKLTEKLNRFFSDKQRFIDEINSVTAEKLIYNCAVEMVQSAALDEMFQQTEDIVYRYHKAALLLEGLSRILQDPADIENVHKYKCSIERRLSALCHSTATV"}, "[17]": {"molecular_target": "Serine/threonine-protein kinase/endoribonuclease IRE1 ; ERN1 ; O75460 (Homo sapiens, UniProt O75460)", "sequence (O75460 whole entry, one chain of several)": "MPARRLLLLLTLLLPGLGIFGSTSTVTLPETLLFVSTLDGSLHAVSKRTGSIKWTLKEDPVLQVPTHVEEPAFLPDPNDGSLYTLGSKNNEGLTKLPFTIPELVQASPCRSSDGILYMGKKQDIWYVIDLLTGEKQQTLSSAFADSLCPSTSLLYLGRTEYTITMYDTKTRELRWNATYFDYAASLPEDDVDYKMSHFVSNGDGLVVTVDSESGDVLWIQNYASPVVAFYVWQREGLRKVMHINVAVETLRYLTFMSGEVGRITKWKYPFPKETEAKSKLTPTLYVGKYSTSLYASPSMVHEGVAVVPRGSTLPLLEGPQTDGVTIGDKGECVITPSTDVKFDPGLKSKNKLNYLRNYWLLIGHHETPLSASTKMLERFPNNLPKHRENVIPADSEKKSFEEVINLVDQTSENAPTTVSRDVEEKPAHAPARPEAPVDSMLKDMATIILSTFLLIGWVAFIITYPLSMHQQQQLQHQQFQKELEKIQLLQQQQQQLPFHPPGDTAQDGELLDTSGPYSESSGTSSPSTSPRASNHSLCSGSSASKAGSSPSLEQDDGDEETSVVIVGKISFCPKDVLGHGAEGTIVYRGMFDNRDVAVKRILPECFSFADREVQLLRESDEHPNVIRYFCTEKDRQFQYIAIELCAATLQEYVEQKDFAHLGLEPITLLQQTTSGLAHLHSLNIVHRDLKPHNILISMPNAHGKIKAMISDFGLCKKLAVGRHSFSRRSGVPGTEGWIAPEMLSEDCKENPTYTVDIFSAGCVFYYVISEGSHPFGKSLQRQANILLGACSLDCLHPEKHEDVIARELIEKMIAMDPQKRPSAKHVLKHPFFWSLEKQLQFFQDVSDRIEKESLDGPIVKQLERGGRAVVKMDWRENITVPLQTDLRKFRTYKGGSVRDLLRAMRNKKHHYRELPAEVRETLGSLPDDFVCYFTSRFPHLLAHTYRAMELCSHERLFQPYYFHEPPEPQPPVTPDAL"}, "[18]": {"molecular_target": "TGF-beta receptor type-1 ; TGFBR1 ; P36897 (Homo sapiens, UniProt P36897)", "sequence (P36897 whole entry)": "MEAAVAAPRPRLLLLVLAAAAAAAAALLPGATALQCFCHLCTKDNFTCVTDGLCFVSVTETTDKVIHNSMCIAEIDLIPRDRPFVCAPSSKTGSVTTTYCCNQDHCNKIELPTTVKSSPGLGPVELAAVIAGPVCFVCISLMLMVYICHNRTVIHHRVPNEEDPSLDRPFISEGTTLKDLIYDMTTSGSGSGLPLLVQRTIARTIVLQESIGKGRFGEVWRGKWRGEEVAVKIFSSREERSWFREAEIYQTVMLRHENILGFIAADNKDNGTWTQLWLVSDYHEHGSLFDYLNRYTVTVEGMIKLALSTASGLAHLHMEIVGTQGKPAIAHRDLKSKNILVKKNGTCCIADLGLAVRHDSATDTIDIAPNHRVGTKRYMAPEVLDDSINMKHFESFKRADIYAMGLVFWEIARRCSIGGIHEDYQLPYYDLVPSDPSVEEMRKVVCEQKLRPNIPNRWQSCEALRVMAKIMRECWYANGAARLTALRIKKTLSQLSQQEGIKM"}, "[19]": {"molecular_target": "Tyrosine-protein kinase JAK1 ; JAK1 ; P23458 (Homo sapiens, UniProt P23458)"}, "[20]": {"molecular_target": "Tyrosine-protein kinase Lyn ; LYN ; P07948 (Homo sapiens, UniProt P07948)"}, "[21]": {"conditions": "read-out: BAY-1143572 (10 µM) / %Intensity relative to DMSO"}, "[22]": {"conditions": "read-out: BAY-1251152 (10 µM) / %Intensity relative to DMSO"}},
  "note": "Read-outs that look alike come from different tables or passages of the source.",
  "data": [
    {"smiles": "COc1cc(F)ccc1-c1ncnc(Nc2cccc(C[S@](C)(=N)=O)c2)n1", "note": "[BAY-1143572]", "values": [
      {"measurement": "remaining activity at 10 µM", "setting": "[1]; [21]", "result": 136, "unit": "%"},
      {"measurement": "remaining activity at 10 µM", "setting": "[2]; [21]", "result": 86.7, "unit": "%"},
      {"measurement": "remaining activity at 10 µM", "setting": "[3]; [21]", "result": 114, "unit": "%"},
      {"measurement": "remaining activity at 10 µM", "setting": "[4]; [21]", "result": 117, "unit": "%"},
      {"measurement": "remaining activity at 10 µM", "setting": "[5]; [21]", "result": 79, "unit": "%"},
      {"measurement": "remaining activity at 10 µM", "setting": "[6]; [21]", "result": 91.5, "unit": "%"},
      {"measurement": "remaining activity at 10 µM", "setting": "[7]; [21]", "result": 124, "unit": "%"},
      {"measurement": "remaining activity at 10 µM", "setting": "[8]; [21]", "result": 110, "unit": "%"},
      {"measurement": "remaining activity at 10 µM", "setting": "[9]; [21]", "result": 42.2, "unit": "%"},
      {"measurement": "remaining activity at 10 µM", "setting": "[10]; [21]", "result": 119, "unit": "%"},
      {"measurement": "remaining activity at 10 µM", "setting": "[11]; [21]", "result": 106, "unit": "%"},
      {"measurement": "remaining activity at 10 µM", "setting": "[12]; [21]", "result": 97.6, "unit": "%"},
      {"measurement": "remaining activity at 10 µM", "setting": "[13]; [21]", "result": 95.3, "unit": "%"},
      {"measurement": "remaining activity at 10 µM", "setting": "[14]; [21]", "result": 104, "unit": "%"},
      {"measurement": "remaining activity at 10 µM", "setting": "[15]; [21]", "result": 109, "unit": "%"},
      {"measurement": "remaining activity at 10 µM", "setting": "[16]; [21]", "result": 92.9, "unit": "%"},
      {"measurement": "remaining activity at 10 µM", "setting": "[17]; [21]", "result": 133, "unit": "%"},
      {"measurement": "remaining activity at 10 µM", "setting": "[18]; [21]", "result": 115, "unit": "%"},
      {"measurement": "remaining activity at 10 µM", "setting": "[19]; [21]", "result": 104, "unit": "%"},
      {"measurement": "remaining activity at 10 µM", "setting": "[20]; [21]", "result": 82, "unit": "%"}
    ]},
    {"smiles": "COc1cc(F)ccc1-c1cc(Nc2cc(CS(C)(=N)=O)ccn2)ncc1F", "note": "(stereo not shown) [BAY-1251152]", "values": [
      {"measurement": "remaining activity at 10 µM", "setting": "[1]; [22]", "result": 119, "unit": "%"},
      {"measurement": "remaining activity at 10 µM", "setting": "[2]; [22]", "result": 82.1, "unit": "%"},
      {"measurement": "remaining activity at 10 µM", "setting": "[3]; [22]", "result": 106, "unit": "%"},
      {"measurement": "remaining activity at 10 µM", "setting": "[4]; [22]", "result": 107, "unit": "%"},
      {"measurement": "remaining activity at 10 µM", "setting": "[5]; [22]", "result": 106, "unit": "%"},
      {"measurement": "remaining activity at 10 µM", "setting": "[6]; [22]", "result": 95.9, "unit": "%"},
      {"measurement": "remaining activity at 10 µM", "setting": "[7]; [22]", "result": 106, "unit": "%"},
      {"measurement": "remaining activity at 10 µM", "setting": "[8]; [22]", "result": 105, "unit": "%"},
      {"measurement": "remaining activity at 10 µM", "setting": "[9]; [22]", "result": 32.9, "unit": "%"},
      {"measurement": "remaining activity at 10 µM", "setting": "[10]; [22]", "result": 108, "unit": "%"},
      {"measurement": "remaining activity at 10 µM", "setting": "[11]; [22]", "result": 103, "unit": "%"},
      {"measurement": "remaining activity at 10 µM", "setting": "[12]; [22]", "result": 55.3, "unit": "%"},
      {"measurement": "remaining activity at 10 µM", "setting": "[13]; [22]", "result": 96, "unit": "%"},
      {"measurement": "remaining activity at 10 µM", "setting": "[14]; [22]", "result": 96.8, "unit": "%"},
      {"measurement": "remaining activity at 10 µM", "setting": "[15]; [22]", "result": 106, "unit": "%"},
      {"measurement": "remaining activity at 10 µM", "setting": "[16]; [22]", "result": 104, "unit": "%"},
      {"measurement": "remaining activity at 10 µM", "setting": "[17]; [22]", "result": 131, "unit": "%"},
      {"measurement": "remaining activity at 10 µM", "setting": "[18]; [22]", "result": 114, "unit": "%"},
      {"measurement": "remaining activity at 10 µM", "setting": "[19]; [22]", "result": 110, "unit": "%"},
      {"measurement": "remaining activity at 10 µM", "setting": "[20]; [22]", "result": 79.4, "unit": "%"}
    ]}
  ]
}
